# Legend:
# Assay in all cases: selective drug sensitivity score (sDSS, relative to normal bone marrow) (sDSS (score)); higher = more potent and effective on the cell line relative to normal bone marrow cells
# Settings in all cases: 72 h
# TMD5 = test system: TMD5
# TANOUE = test system: TANOUE
# P12-ICHIKAWA = test system: P12-ICHIKAWA
# 697 = test system: 697
# KOPN-8 = test system: KOPN-8
# ALL-PO = test system: ALL-PO
# COG-LL-319h = test system: COG-LL-319h
# CCRF-HSB2 = test system: CCRF-HSB2
# MHH-CALL-2 = test system: MHH-CALL-2
# MOLT-16 = test system: MOLT-16
# MHH-CALL-4 = test system: MHH-CALL-4
# MOLT-14 = test system: MOLT-14
# MOLT-4 = test system: MOLT-4
# 380 = test system: 380
# COG-LL-394h = test system: COG-LL-394h
# COG-LL-317 = test system: COG-LL-317
# MN-60 = test system: MN-60
# JURKAT = test system: JURKAT
# PEER = test system: PEER
# COG-LL-402h = test system: COG-LL-402h
# 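Note: ALL cell lines in 384-well plates, five doses spanning 10,000-fold, each plate scaled between vehicle and 100 µmol/L benzalkonium chloride controls, sDSS an adapted area-under-curve metric.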
structure (smiles),measurement,setting,value
COc1cc(C(=O)O)ccc1NC(=O)[C@@H]1N[C@@H](CC(C)(C)C)[C@](C#N)(c2ccc(Cl)cc2F)[C@H]1c1cccc(Cl)c1F [Idasanutlin] (top concentration 10000 nM),selective drug sensitivity score,TMD5,12.6
same,selective drug sensitivity score,TANOUE,-12.5
same,selective drug sensitivity score,P12-ICHIKAWA,-11.5
same,selective drug sensitivity score,697,16.8
same,selective drug sensitivity score,KOPN-8,25.7
same,selective drug sensitivity score,ALL-PO,-12.5
same,selective drug sensitivity score,COG-LL-319h,17
same,selective drug sensitivity score,CCRF-HSB2,15.5
same,selective drug sensitivity score,MHH-CALL-2,18.7
same,selective drug sensitivity score,MOLT-16,21.3
same,selective drug sensitivity score,MHH-CALL-4,12.3
same,selective drug sensitivity score,MOLT-14,15.6
same,selective drug sensitivity score,MOLT-4,20.7
same,selective drug sensitivity score,380,23.5
same,selective drug sensitivity score,COG-LL-394h,4.96
same,selective drug sensitivity score,COG-LL-317,28.4
same,selective drug sensitivity score,MN-60,0.46
same,selective drug sensitivity score,JURKAT,-7.74
same,selective drug sensitivity score,PEER,-9.04
same,selective drug sensitivity score,COG-LL-402h,15.4
Clc1ccc(C(c2ccccc2Cl)C(Cl)Cl)cc1 (stereo not given) [Mitotane] (top concentration 10000 nM),selective drug sensitivity score,TMD5,-0.08
same,selective drug sensitivity score,TANOUE,-0.08
same,selective drug sensitivity score,P12-ICHIKAWA,-0.08
same,selective drug sensitivity score,697,-0.08
same,selective drug sensitivity score,KOPN-8,4.32
same,selective drug sensitivity score,ALL-PO,-0.08
same,selective drug sensitivity score,COG-LL-319h,-0.08
same,selective drug sensitivity score,CCRF-HSB2,-0.08
same,selective drug sensitivity score,MHH-CALL-2,1.32
same,selective drug sensitivity score,MOLT-16,-0.08
same,selective drug sensitivity score,MHH-CALL-4,0.12
same,selective drug sensitivity score,MOLT-14,0.32
same,selective drug sensitivity score,MOLT-4,-0.08
same,selective drug sensitivity score,380,-0.08
same,selective drug sensitivity score,COG-LL-394h,-0.08
same,selective drug sensitivity score,COG-LL-317,-0.08
same,selective drug sensitivity score,MN-60,-0.08
same,selective drug sensitivity score,JURKAT,-0.08
same,selective drug sensitivity score,PEER,-0.08
same,selective drug sensitivity score,COG-LL-402h,-0.08
CCS(=O)(=O)Nc1ccc(Oc2ccc(F)cc2F)c(-c2cn(C)c(=O)c3[nH]ccc23)c1 [Mivebresib] (top concentration 10000 nM),selective drug sensitivity score,TMD5,-5.7
same,selective drug sensitivity score,TANOUE,-12
same,selective drug sensitivity score,P12-ICHIKAWA,9.9
same,selective drug sensitivity score,697,16.5
same,selective drug sensitivity score,KOPN-8,16.6
same,selective drug sensitivity score,ALL-PO,6.1
same,selective drug sensitivity score,COG-LL-319h,7.7
same,selective drug sensitivity score,CCRF-HSB2,1.3
same,selective drug sensitivity score,MHH-CALL-2,14.8
same,selective drug sensitivity score,MOLT-16,13.1
same,selective drug sensitivity score,MHH-CALL-4,12.5
same,selective drug sensitivity score,MOLT-14,2.7
same,selective drug sensitivity score,MOLT-4,-3.5
same,selective drug sensitivity score,380,-13
same,selective drug sensitivity score,COG-LL-394h,1.6
same,selective drug sensitivity score,COG-LL-317,11.5
same,selective drug sensitivity score,MN-60,8.2
same,selective drug sensitivity score,JURKAT,3.55e-15
same,selective drug sensitivity score,PEER,1.1
same,selective drug sensitivity score,COG-LL-402h,12.7
CC(=O)O[C@@]12CO[C@@H]1C[C@H](O)[C@@]1(C)C(=O)[C@H](O)C3=C(C)[C@@H](OC(=O)[C@H](O)[C@@H](NC(=O)OC(C)(C)C)c4ccccc4)C[C@@](O)([C@@H](OC(=O)c4ccccc4)[C@H]21)C3(C)C [Docetaxel] (top concentration 1000 nM),selective drug sensitivity score,TMD5,8.5
same,selective drug sensitivity score,TANOUE,-11.8
same,selective drug sensitivity score,P12-ICHIKAWA,19.1
same,selective drug sensitivity score,697,23.4
same,selective drug sensitivity score,KOPN-8,23.7
same,selective drug sensitivity score,ALL-PO,15.5
same,selective drug sensitivity score,COG-LL-319h,21.2
same,selective drug sensitivity score,CCRF-HSB2,19.3
same,selective drug sensitivity score,MHH-CALL-2,18.6
same,selective drug sensitivity score,MOLT-16,23.5
same,selective drug sensitivity score,MHH-CALL-4,8.2
same,selective drug sensitivity score,MOLT-14,19.5
same,selective drug sensitivity score,MOLT-4,14.8
same,selective drug sensitivity score,380,22.4
same,selective drug sensitivity score,COG-LL-394h,8.5
same,selective drug sensitivity score,COG-LL-317,20.6
same,selective drug sensitivity score,MN-60,-1
same,selective drug sensitivity score,JURKAT,17.1
same,selective drug sensitivity score,PEER,22.3
same,selective drug sensitivity score,COG-LL-402h,15
C[C@H]1C[C@@H](n2c(Nc3ccc(OC(F)(F)F)cc3)nc3cc(CCC(=O)O)ccc32)CC(C)(C)C1 (top concentration 10000 nM),selective drug sensitivity score,TMD5,-0.14
same,selective drug sensitivity score,TANOUE,-0.14
same,selective drug sensitivity score,P12-ICHIKAWA,1.26
same,selective drug sensitivity score,697,-0.14
same,selective drug sensitivity score,KOPN-8,0.06
same,selective drug sensitivity score,ALL-PO,2.86
same,selective drug sensitivity score,COG-LL-319h,-0.14
same,selective drug sensitivity score,CCRF-HSB2,2.56
same,selective drug sensitivity score,MHH-CALL-2,0.96
same,selective drug sensitivity score,MOLT-16,5.66
same,selective drug sensitivity score,MHH-CALL-4,-0.14
same,selective drug sensitivity score,MOLT-14,2.96
same,selective drug sensitivity score,MOLT-4,3.06
same,selective drug sensitivity score,380,-0.14
same,selective drug sensitivity score,COG-LL-394h,-0.14
same,selective drug sensitivity score,COG-LL-317,2.56
same,selective drug sensitivity score,MN-60,-0.04
same,selective drug sensitivity score,JURKAT,4.26
same,selective drug sensitivity score,PEER,2.16
same,selective drug sensitivity score,COG-LL-402h,-0.14
CC(=O)O[C@H]1C(=O)[C@@]2(C)[C@H]([C@H](OC(=O)c3ccccc3)[C@]3(O)C[C@H](OC(=O)[C@H](O)[C@@H](NC(=O)c4ccccc4)c4ccccc4)C(C)=C1C3(C)C)[C@]1(OC(C)=O)CO[C@@H]1C[C@@H]2O [Paclitaxel] (top concentration 1000 nM),selective drug sensitivity score,TMD5,8.14
same,selective drug sensitivity score,TANOUE,-10.8
same,selective drug sensitivity score,P12-ICHIKAWA,19.9
same,selective drug sensitivity score,697,22.4
same,selective drug sensitivity score,KOPN-8,22.4
same,selective drug sensitivity score,ALL-PO,17.8
same,selective drug sensitivity score,COG-LL-319h,21.5
same,selective drug sensitivity score,CCRF-HSB2,18.8
same,selective drug sensitivity score,MHH-CALL-2,17.3
same,selective drug sensitivity score,MOLT-16,21.7
same,selective drug sensitivity score,MHH-CALL-4,7.24
same,selective drug sensitivity score,MOLT-14,19
same,selective drug sensitivity score,MOLT-4,19.3
same,selective drug sensitivity score,380,19.9
same,selective drug sensitivity score,COG-LL-394h,6.84
same,selective drug sensitivity score,COG-LL-317,19.6
same,selective drug sensitivity score,MN-60,-0.36
same,selective drug sensitivity score,JURKAT,18.3
same,selective drug sensitivity score,PEER,22.2
same,selective drug sensitivity score,COG-LL-402h,12.8
CC1(C)C(C(=O)Nc2ccc(S(=O)(=O)c3ccc(NC(=O)C4C(C)(C)C4(C)C)cc3)cc2)C1(C)C [BRD7116] (top concentration 10000 nM),selective drug sensitivity score,TMD5,0.66
same,selective drug sensitivity score,TANOUE,-0.24
same,selective drug sensitivity score,P12-ICHIKAWA,0.66
same,selective drug sensitivity score,697,0.56
same,selective drug sensitivity score,KOPN-8,-0.24
same,selective drug sensitivity score,ALL-PO,-0.24
same,selective drug sensitivity score,COG-LL-319h,1.26
same,selective drug sensitivity score,CCRF-HSB2,0.16
same,selective drug sensitivity score,MHH-CALL-2,0.16
same,selective drug sensitivity score,MOLT-16,1.26
same,selective drug sensitivity score,MHH-CALL-4,-0.24
same,selective drug sensitivity score,MOLT-14,2.16
same,selective drug sensitivity score,MOLT-4,0.66
same,selective drug sensitivity score,380,-0.24
same,selective drug sensitivity score,COG-LL-394h,3.16
same,selective drug sensitivity score,COG-LL-317,-0.24
same,selective drug sensitivity score,MN-60,-0.04
same,selective drug sensitivity score,JURKAT,1.76
same,selective drug sensitivity score,PEER,-0.14
same,selective drug sensitivity score,COG-LL-402h,-0.24
CC[C@@H]1CN(C(=O)NCC(F)(F)F)C[C@@H]1c1cnc2cnc3[nH]ccc3n12 [Upadacitinib] (top concentration 10000 nM),selective drug sensitivity score,TMD5,-7.16
same,selective drug sensitivity score,TANOUE,-6.86
same,selective drug sensitivity score,P12-ICHIKAWA,-7.16
same,selective drug sensitivity score,697,-6.06
same,selective drug sensitivity score,KOPN-8,-7.16
same,selective drug sensitivity score,ALL-PO,-7.16
same,selective drug sensitivity score,COG-LL-319h,-7.16
same,selective drug sensitivity score,CCRF-HSB2,-5.06
same,selective drug sensitivity score,MHH-CALL-2,-7.16
same,selective drug sensitivity score,MOLT-16,-7.16
same,selective drug sensitivity score,MHH-CALL-4,-6.46
same,selective drug sensitivity score,MOLT-14,-7.16
same,selective drug sensitivity score,MOLT-4,-7.16
same,selective drug sensitivity score,380,-0.16
same,selective drug sensitivity score,COG-LL-394h,-7.16
same,selective drug sensitivity score,COG-LL-317,-7.16
same,selective drug sensitivity score,MN-60,-7.16
same,selective drug sensitivity score,JURKAT,-6.86
same,selective drug sensitivity score,PEER,-6.66
same,selective drug sensitivity score,COG-LL-402h,-7.16

# — the supplement of paper PMC8967900
